Read-outs that look alike come from different tables or passages of the source.
Experiments:
[1] = system: normal human induced pluripotent stem cell (hiPSC) cardiomyocyte; details: for WT-Fold Prolongation: APD; for WT-Fold Prolongation / Cessation of Beating / WT-EAD Dose / WT-Prolongation Dose: normal hiPSC cardiomyocytes
[2] = system: cardiomyocytes derived from hiPSCs from a LQTS3 patient
[3] = system: cardiomyocytes derived from hiPSCs from a LQTS3 patient; experiment: cells; details: Homo sapiens, Cardiomyocyte; for IC50: read-out: LQT-IC50 (uM)-Shortening
[4] = WT cardiomyocytes, AP prolongation
[5] = LQT-3 cardiomyocytes, AP shortening

Structure (SMILES) | WT-Fold Prolongation [1] | Cessation of Beating [1] | LQT-Cessation Dose ([2]; LQT3 cardiomyocytes) | LQT-Fold Shortening ([2]; LQT3 cardiomyocytes) | WT-Prolongation Dose [1] | further results
Cc1ccc(OCC(N)C2CC2)c(C)c1.Cl (stereo not drawn) [Compound 65] | 2.12 | 200 µM | 200 µM | 1.119 | – | WT-EAD Dose [1]: 66 µM; IC50 [3]: 1.36 µM
NC(COc1cccc2ccccc12)c1ccccc1 (stereo not drawn) [Compound 129] | – | – | – | – | – | WT-EC50 (μM) Prolongation [1, 4]: Does Not Prolong AP; LQT-Fold Shortening ([2]; LQT-3 cardiomyocytes): 1.316; LQT-Cessation Dose ([2]; LQT-3 cardiomyocytes, cessation of beating): 66 µM; EC50 ([3]; read-out: LQT-EC50 (μM) Shortening, LQT-3 cardiomyocytes, AP shortening): 0.82 µM
CCc1ccccc1OCC(C)N (stereo not drawn) [Compound 50, 1-(2-Ethylphenoxy)propan-2-amine] | 1.392 | None | None | 1.12 | – | IC50 [3]: 6.01 µM
Cc1cc(C)cc(OC[C@H](N)C2CC2)c1.Cl [Compound 63] | 1.577 | None | 200 µM | 1.11 | – | WT-EAD Dose [1]: 66 µM; IC50 [3]: 7.5 µM
c1ccc(CON=C(COc2ccccn2)c2ccccc2)cc1 [Compound 18] | None | None | None | None | None | LQT-Shortening Dose ([2]; LQT3 cardiomyocytes): None
CCCNC(COc1cccc(C)c1C)c1ccccc1 (stereo not drawn) [Compound 31, 2-(2,3-dimethylphenoxy)-N-propyl-1-phenylethanamine] | None | None | 133 µM | None | None | LQT-Shortening Dose ([2]; LQT3 cardiomyocytes): None
CC(N)COc1ccccc1C(F)(F)F (stereo not drawn) [Compound 51, 1-(2-(Trifluoromethyl)phenoxy)propan-2-amine] | None | None | None | 1.37 | None | –
NC(COc1ccnc(C(F)(F)F)c1)c1ccccc1 (stereo not drawn) [Compound 128] | – | – | – | – | – | WT-EC50 (μM) Prolongation [1, 4]: Does Not Prolong AP; WT-Cessation Dose (μM) ([1]; WT cardiomyocytes, cessation of beating): No cessation of beating; LQT-Fold Shortening ([2]; LQT-3 cardiomyocytes): 1.226; LQT-EC50 (μM) Shortening [2, 5]: Shortens
CC(N)COc1ccccn1 (stereo not drawn) [Compound 48, (Pyridin-2-yloxy)propan-2-amine] | None | None | None | None | None | WT-Cessation Dose ([1]; pyridyl derivatives): No cessation of beating; WT-EC50 (μM) Prolongation ([1]; pyridyl derivatives): Does Not Prolong AP; LQT-Shortening Dose ([2]; LQT3 cardiomyocytes): None; LQT-EC50 (μM) Shortening ([2]; pyridyl derivatives): Does Not Shorten; LQT-Fold Shortening ([2]; pyridyl derivatives): Does Not Shorten; LQT-Shortening Dose ([2]; pyridyl derivatives): Does Not Shorten
Cc1ccc(OCC(N)C2CC2)cc1C.Cl (stereo not drawn) [Compound 77] | None | 66 µM | 200 µM | 1.18 | None | –
COCCNC(COc1ccc(C)nc1C)c1ccccc1 (stereo not drawn) [Compound 125] | – | – | – | – | – | WT-EC50 (μM) Prolongation [1, 4]: Does Not Prolong AP; LQT-Fold Shortening ([2]; LQT-3 cardiomyocytes): Does Not Shorten; LQT-Shortening Dose (μM) ([2]; LQT-3 cardiomyocytes): Does Not Shorten; LQT-EC50 (μM) Shortening [2, 5]: Does Not Shorten
Cc1cccc(Cl)c1OCC(N)C1CCCCC1.Cl (stereo not drawn) [Compound 76] | None | 66 µM | 66 µM | 1.244 | None | –
COc1ccc(C(N)COc2c(C)cccc2C)cc1 (stereo not drawn) [Compound 15, 2-(2,6-dimethylphenoxy)-1-(4-methoxyphenyl)ethanamine] | None | 66 µM | 66 µM | 1.42 | None | –
Cc1cccc2c1OCC(C1CC1)NC2.Cl (stereo not drawn) [Compound 74] | 2.633 | None | None | None | – | WT-EAD Dose [1]: 133 µM; LQT-Shortening Dose ([2]; LQT3 cardiomyocytes): None

From US11492325B2, “Compounds as inhibitors of sodium channels” (Human BioMolecular Research Institute, priority 2016, dated 2022)
